# Publication PMC6222927, “Aminobenzosuberone Scaffold as a Modular Chemical Tool for the Inhibition of Therapeutically Relevant M1 Aminopeptidases” (Molecules : A Journal of Synthetic Chemistry and Natural …, 2018)
# Tests used:
# pAPN from porcine kidney = conditions: Dixon plots; cited from earlier work
# [1] = biological target: aminopeptidase from A. proteolytica (AAP); design: method as in PMID 21843945; conditions: ref 58; cited from earlier work
# [2] = Octanol/water partition coefficient (logD7.4) by reversed-phase HPLC; conditions: pH 7.4
# Protocol: The flow was 0.9 mL/min. The aminobenzosuberone derivatives were dissolved at 0.4 µM in methanol. The standards were also dissolved in methanol. Column void volume was estimated from the retention time of uracil, which was included as a non-retained internal reference with each injection.
# E. coli rEcPepN = E. coli rEcPepN (Escherichia coli, UniProt P04825); test: rEcPepN inhibition, Leu-pNA substrate, Dixon method; type: biochemical
# Protocol: Enzyme activity assays were carried out in 10 mM Tris-HCl buffer at pH 7.5 with 150 mM NaCl, enzyme, 100 µM substrate (Leu-pNA) in a 100 μL reaction at 37 °C. The absorbance was read at 405 nm. Concentrations ranging from 1 nM to 100 μM of inhibitors (dissolved in DMSO) were incubated with each of the enzymes ([…]) for 30 min at 37 °C in a 96 well plate. After addition of the substrate, immediate increase in absorption was measured. All inhibition assays were performed in triplicates and initial velocities were measured. Percentage inhibition and log values of inhibitor concentrations were plotted using SigmaPlot to determine IC50 values. Ki values were determined by the Dixon method. The assay consists of reaction buffer, enzyme and varied concentrations of Leu-pNA (25, 50, 100, 200 and 400 µM). […] Data were plotted as 1/rate versus inhibitor concentration for each substrate concentration and a linear fit was calculated by non-linear regression using SigmaPlot12.5. All the reactions were performed in triplicates, SD values were reported.
# P. falciparum rPfAM1 = biological target: T1, P. falciparum rPfAM1 (Plasmodium falciparum, UniProt O96935); test: biochemical; type: biochemical
# T1 construct: made in house; host or cells: Escherichia coli Rosetta 2 (DE3)
# T1 sequence (O96935 1-1085): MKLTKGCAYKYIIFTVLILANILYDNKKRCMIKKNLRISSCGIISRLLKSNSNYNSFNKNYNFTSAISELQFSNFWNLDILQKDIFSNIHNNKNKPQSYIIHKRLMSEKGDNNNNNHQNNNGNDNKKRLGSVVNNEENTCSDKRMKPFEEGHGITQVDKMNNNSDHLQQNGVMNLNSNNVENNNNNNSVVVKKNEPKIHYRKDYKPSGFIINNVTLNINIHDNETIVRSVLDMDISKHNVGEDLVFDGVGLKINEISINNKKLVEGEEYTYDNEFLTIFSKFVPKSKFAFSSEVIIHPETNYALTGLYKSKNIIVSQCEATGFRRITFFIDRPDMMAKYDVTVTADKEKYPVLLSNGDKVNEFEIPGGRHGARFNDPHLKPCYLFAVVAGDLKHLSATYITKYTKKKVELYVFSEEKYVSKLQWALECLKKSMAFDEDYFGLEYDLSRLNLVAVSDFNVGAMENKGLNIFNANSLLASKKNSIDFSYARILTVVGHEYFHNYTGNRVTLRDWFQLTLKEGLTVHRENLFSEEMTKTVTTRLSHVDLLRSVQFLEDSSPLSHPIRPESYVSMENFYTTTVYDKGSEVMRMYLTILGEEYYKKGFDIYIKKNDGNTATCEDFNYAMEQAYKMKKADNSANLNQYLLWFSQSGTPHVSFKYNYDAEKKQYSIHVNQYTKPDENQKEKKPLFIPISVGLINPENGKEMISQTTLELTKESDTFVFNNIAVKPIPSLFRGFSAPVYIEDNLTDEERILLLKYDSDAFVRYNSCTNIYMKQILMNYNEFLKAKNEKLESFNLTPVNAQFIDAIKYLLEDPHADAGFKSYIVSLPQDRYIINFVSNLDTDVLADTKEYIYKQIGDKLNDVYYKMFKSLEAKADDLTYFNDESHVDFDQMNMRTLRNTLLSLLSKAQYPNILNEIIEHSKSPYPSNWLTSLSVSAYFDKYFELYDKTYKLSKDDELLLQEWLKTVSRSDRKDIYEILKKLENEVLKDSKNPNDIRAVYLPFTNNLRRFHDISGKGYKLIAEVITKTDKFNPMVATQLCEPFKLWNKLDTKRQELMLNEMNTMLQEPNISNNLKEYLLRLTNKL
# Protocol: Initial velocities were measured with increasing concentrations of inhibitors and Ki values were determined by Dixon plots in triplicate.
# [3] = biological target: human puromycine sensitive aminopeptidase (rHsPSA) (Homo sapiens, UniProt P55786); test: rHsPSA inhibition, Leu-pNA substrate, Dixon method; type: biochemical; conditions: triplicate, SD
# Protocol: Enzyme activity assays were carried out in 10 mM Tris-HCl buffer at pH 7.5 with 150 mM NaCl, enzyme, 100 µM substrate (Leu-pNA) in a 100 μL reaction at 37 °C. The absorbance was read at 405 nm. Concentrations ranging from 1 nM to 100 μM of inhibitors (dissolved in DMSO) were incubated with each of the enzymes ([…]) for 30 min at 37 °C in a 96 well plate. After addition of the substrate, immediate increase in absorption was measured. All inhibition assays were performed in triplicates and initial velocities were measured. Percentage inhibition and log values of inhibitor concentrations were plotted using SigmaPlot to determine IC50 values. Ki values were determined by the Dixon method. The assay consists of reaction buffer, enzyme and varied concentrations of Leu-pNA (25, 50, 100, 200 and 400 µM). […]. All the reactions were performed in triplicates, SD values were reported.
# E. coli rEcPepN, sequence (P04825 whole entry): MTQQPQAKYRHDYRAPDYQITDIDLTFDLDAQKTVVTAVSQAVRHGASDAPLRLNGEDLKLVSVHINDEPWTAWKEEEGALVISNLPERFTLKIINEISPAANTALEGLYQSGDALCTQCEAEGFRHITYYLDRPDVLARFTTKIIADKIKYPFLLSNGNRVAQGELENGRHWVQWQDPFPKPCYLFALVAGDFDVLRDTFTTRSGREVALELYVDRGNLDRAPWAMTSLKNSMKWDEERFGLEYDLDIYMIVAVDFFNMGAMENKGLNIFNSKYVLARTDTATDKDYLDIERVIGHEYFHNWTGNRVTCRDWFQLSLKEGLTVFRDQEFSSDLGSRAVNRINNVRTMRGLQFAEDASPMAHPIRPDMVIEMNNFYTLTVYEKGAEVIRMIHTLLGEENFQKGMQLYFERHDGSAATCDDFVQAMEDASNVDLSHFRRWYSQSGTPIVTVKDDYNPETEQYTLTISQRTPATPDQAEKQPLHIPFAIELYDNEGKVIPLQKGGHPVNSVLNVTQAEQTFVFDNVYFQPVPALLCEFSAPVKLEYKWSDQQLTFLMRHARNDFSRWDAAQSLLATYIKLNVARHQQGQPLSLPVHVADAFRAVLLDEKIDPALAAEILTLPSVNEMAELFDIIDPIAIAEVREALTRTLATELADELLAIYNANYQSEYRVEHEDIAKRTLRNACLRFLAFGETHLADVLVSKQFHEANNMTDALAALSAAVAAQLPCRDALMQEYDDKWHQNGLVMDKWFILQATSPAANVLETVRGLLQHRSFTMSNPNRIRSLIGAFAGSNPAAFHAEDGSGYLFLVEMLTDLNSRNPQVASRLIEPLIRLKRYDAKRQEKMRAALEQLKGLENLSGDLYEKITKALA
# human puromycine sensitive aminopeptidase (rHsPSA), sequence (P55786 whole entry): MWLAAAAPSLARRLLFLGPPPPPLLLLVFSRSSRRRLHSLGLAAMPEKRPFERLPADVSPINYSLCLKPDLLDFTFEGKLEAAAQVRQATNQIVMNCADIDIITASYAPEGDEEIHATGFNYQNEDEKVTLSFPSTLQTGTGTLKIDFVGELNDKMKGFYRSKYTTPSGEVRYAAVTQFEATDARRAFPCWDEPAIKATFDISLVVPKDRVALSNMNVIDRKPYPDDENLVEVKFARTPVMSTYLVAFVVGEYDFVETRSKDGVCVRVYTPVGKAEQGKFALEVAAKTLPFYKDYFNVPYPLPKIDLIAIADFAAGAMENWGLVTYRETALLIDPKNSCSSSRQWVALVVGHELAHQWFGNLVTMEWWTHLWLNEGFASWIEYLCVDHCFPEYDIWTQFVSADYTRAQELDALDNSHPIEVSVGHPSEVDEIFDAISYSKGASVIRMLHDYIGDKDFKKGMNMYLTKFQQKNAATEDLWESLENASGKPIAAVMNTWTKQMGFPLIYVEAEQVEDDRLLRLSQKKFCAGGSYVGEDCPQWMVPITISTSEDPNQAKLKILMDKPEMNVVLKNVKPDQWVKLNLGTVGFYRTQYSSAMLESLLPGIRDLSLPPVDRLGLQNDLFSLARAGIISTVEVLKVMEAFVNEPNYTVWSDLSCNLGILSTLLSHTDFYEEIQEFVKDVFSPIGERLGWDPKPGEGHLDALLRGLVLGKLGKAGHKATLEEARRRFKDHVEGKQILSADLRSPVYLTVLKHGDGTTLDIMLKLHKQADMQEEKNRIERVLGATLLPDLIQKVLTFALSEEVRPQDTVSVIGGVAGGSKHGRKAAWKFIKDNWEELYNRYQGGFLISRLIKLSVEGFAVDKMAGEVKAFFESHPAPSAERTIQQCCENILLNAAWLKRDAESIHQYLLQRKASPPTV
structure (smiles),measurement,setting,value
NC1CCc2c(Br)cccc2CC1=O (stereo not drawn) [21e],Ki,pAPN from porcine kidney,0.02 µM
same,Ki,[1],> 100 µM
same,chromatographic logD,[2],1.41
same,Ki,E. coli rEcPepN,4.59 ± 0.17 µM
same,Ki,P. falciparum rPfAM1,1 ± 0.04 µM
same,Ki,[3],1.07 ± 0.063 µM
